Results on 21 compounds are retold here after patent US20240199587A1, “HETEROCYCLIC COMPOUNDS” (Hoffmann-La Roche Inc., priority 2021, published 2024).

The test deals with T1, MAGL (Homo sapiens, UniProt Q99685).
T1 sequence (Q99685 1-303): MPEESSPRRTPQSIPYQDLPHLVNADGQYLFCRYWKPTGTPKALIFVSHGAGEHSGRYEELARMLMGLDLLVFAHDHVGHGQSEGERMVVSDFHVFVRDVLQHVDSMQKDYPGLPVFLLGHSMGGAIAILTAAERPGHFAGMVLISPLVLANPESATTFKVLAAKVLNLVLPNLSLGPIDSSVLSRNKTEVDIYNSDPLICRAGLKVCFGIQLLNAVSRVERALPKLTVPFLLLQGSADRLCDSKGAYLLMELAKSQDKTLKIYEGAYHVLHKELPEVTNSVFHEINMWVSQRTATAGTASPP
Description: 2-AG assay (MAGL inhibitory activity, hydrolysis of 2-arachidonoylglycerol to arachidonic acid followed by mass spectrometry). It is filed as biochemical. Conditions: 8 μM 2-arachidonoylglycerol, 15 min pre-incubation, 30 min incubation at RT, RapidFire MS readout. The gist of the method: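 Human MAGL ([…] final) pre-incubated 15 min at RT with compound in 50 mM TRIS, 1 mM EDTA, 0.01% Tween-20, 2.5% DMSO; 8 μM 2-AG then added for 30 min at RT. Acetonitrile quench with d8-arachidonic acid; arachidonic acid measured by RapidFire SPE–MS/MS, activity from arachidonic acid/d8 ratio.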
Turning to `O=C(N1CC2(CC(Oc3cc(C(F)(F)F)ncn3)C2)C1)N1CC2(CC(n3cnc(C4CC4)n3)C2)C1` [Example 57, [6-(3-cyclopropyl-1,2,4-triazol-1-yl)-2-azaspiro[3.3]heptan-2-yl]-[6-[6-(trifluoromethyl)pyrimidin-4-yl]oxy-2-azaspiro[3.3]heptan-2-yl]methanone], the IC50 is 2.5 nM.

`O=C(N1CC2(CC(Oc3nccc(C(F)(F)F)n3)C2)C1)N1CC2(CC(n3cnc(C4CC4)n3)C2)C1` [Example 58, [6-(3-cyclopropyl-1,2,4-triazol-1-yl)-2-azaspiro[3.3]heptan-2-yl]-[6-[4-(trifluoromethyl)pyrimidin-2-yl]oxy-2-azaspiro[3.3]heptan-2-yl]methanone] came in with a concentration for half-maximal inhibition (IC50) of 2.6 nM.

As to `O=C(N1CC2(CC(Oc3ccc(F)cc3F)C2)C1)N1CC2(CC(n3cnc(C4CC4)n3)C2)C1` [Example 59, (6-(3-cyclopropyl-1H-1,2,4-triazol-1-yl)-2-azaspiro[3.3]heptan-2-yl)(6-(2,4-difluorophenoxy)-2-azaspiro[3.3]heptan-2-yl)methanone], the IC50 was 2.6 nM.

In the case of `COc1ccc(OC2CC3(C2)CN(C(=O)N2CC4(CC(n5cnc(C6CC6)n5)C4)C2)C3)cn1` [Example 60, (6-(3-cyclopropyl-1H-1,2,4-triazol-1-yl)-2-azaspiro[3.3]heptan-2-yl)(6-((6-methoxypyridin-3-yl)oxy)-2-azaspiro[3.3]heptan-2-yl)methanone], the 50% inhibitory concentration (IC50) came out at 5.3 nM.

`O=C(N1CC2(CC(Oc3cnc(C(F)(F)F)nc3)C2)C1)N1CC2(CC(n3cnc(C4CC4)n3)C2)C1` [Example 61, (6-(3-cyclopropyl-1H-1,2,4-triazol-1-yl)-2-azaspiro[3.3]heptan-2-yl)(6-((2-(trifluoromethyl)pyrimidin-5-yl)oxy)-2-azaspiro[3.3]heptan-2-yl)methanone] returned an IC50 of 5.4 nM.

On to `O=C(N1CC2(CC(Oc3ccc(C(F)(F)F)nn3)C2)C1)N1CC2(CC(n3cnc(C4CC4)n3)C2)C1` [Example 62, [6-(3-cyclopropyl-1,2,4-triazol-1-yl)-2-azaspiro[3.3]heptan-2-yl]-[6-[6-(trifluoromethyl)pyridazin-3-yl]oxy-2-azaspiro[3.3]heptan-2-yl]methanone], for which half-maximal inhibition (IC50) was put at 7.2 nM.

Compound `O=C(N1CC2(CC(Oc3cncc(F)c3)C2)C1)N1CC2(CC(n3cnc(C4CC4)n3)C2)C1` [Example 63, (6-(3-cyclopropyl-1H-1,2,4-triazol-1-yl)-2-azaspiro[3.3]heptan-2-yl)(6-((5-fluoropyridin-3-yl)oxy)-2-azaspiro[3.3]heptan-2-yl)methanone] had an IC50 of 19.8 nM.

The compound `CC(C)(C)c1nc(-c2ccc(C(=O)N3CC4(CC(n5cnc(C6CC6)c5)C4)C3)cc2)no1` [Example 64, (4-(5-(tert-butyl)-1,2,4-oxadiazol-3-yl)phenyl)(6-(4-cyclopropyl-1H-imidazol-1-yl)-2-azaspiro[3.3]heptan-2-yl)methanone] gave an IC50 of 21.7 nM.

Compound `O=C(N1CC2(CC(OCC(F)(F)F)C2)C1)N1CC2(CC(n3cnc(C4CC4)n3)C2)C1` [Example 65, [6-(3-cyclopropyl-1,2,4-triazol-1-yl)-2-azaspiro[3.3]heptan-2-yl]-[6-(2,2,2-trifluoroethoxy)-2-azaspiro[3.3]heptan-2-yl]methanone] showed an IC50 of 83.2 nM.

Take `Cn1ccc(OC2CC3(C2)CN(C(=O)N2CC4(CC(n5cnc(C6CC6)n5)C4)C2)C3)cc1=O` [Example 66, 4-[[2-[6-(3-cyclopropyl-1,2,4-triazol-1-yl)-2-azaspiro[3.3]heptane-2-carbonyl]-2-azaspiro[3.3]heptan-6-yl]oxy]-1-methyl-pyridin-2-one]: the IC50 came out at 159 nM.

`O=C(N1CC(c2ccc(C3(C(F)(F)F)CC3)cc2)C1)N1CC2(CC(n3ncnc3C3CC3)C2)C1` [Example 67, [6-(5-cyclopropyl-1,2,4-triazol-1-yl)-2-azaspiro13.31heptan-2-yl]−[3-[4-[1-(trifluoromethyl)cyclopropyl]phenyl]azetidin-1-yl]1methanone] registered a half-inhibitory concentration (IC50) of 3170 nM.

As for `O=C(N1CC2(CC(Oc3ccc(F)c(F)c3)C2)C1)N1CC2(CC(n3cnc(C4CC4)n3)C2)C1` [Example 68, [6-(3-cyclopropyl-1,2,4-triazol-1-yl)-2-azaspiro[3.3]heptan-2-yl]-[6-(3,4-difluorophenoxy)-2-azaspiro[3.3]heptan-2-yl]methanone], the 50% inhibitory concentration (IC50) is 0.9 nM.

For the compound `O=C(N1CC(c2ccc(OC(F)(F)F)c(Cl)c2)C1)N1CC2(CC(n3cnc(C4CC4)c3)C2)C1` [Example 69], the midpoint of inhibition, the IC50, lay at 2 nM.

As to `O=C(N1CC2(CC(Oc3cnc(C(F)(F)F)cn3)C2)C1)N1CC2(CC(n3cnc(C4CC4)n3)C2)C1` [Example 70, [6-(3-cyclopropyl-1,2,4-triazol-1-yl)-2-azaspiro[3.3]heptan-2-yl]-[6-[5-(trifluoromethyl)pyrazin-2-yl]oxy-2-azaspiro[3.3]heptan-2-yl]methanone], inhibition was half-maximal at 2.1 nM (IC50).

As for `O=C(N1CC(OCc2ccc(OC(F)(F)F)cc2)C1)N1CC2(CC(n3cnc(C4CC4)n3)C2)C1` [Example 71, (6-(3-cyclopropyl-1H-1,2,4-triazol-1-yl)-2-azaspiro[3.3]heptan-2-yl)(3-((4-(trifluoromethoxy)ben-zyl)oxy)azetidin-1-yl)methanone], half-maximal inhibition (IC50) required 7.1 nM.

Take `O=C(N1CC(OCc2ccc(C(F)(F)F)cc2)C1)N1CC2(CC(n3cnc(C4CC4)n3)C2)C1` [Example 72, (6-(3-cyclopropyl-1H-1,2,4-triazol-1-yl)-2-azaspiro[3.3]heptan-2-yl)(3-((4-(trifluoromethyl)benzyl)oxy)azetidin-1-yl)methanone]: 3.9 nM corresponded to half-maximal inhibition (IC50).

`O=C(N1CC(OCc2cc(C(F)(F)F)ccc2F)C1)N1CC2(CC(n3cnc(C4CC4)n3)C2)C1` [Example 73, (6-(3-cyclopropyl-1H-1,2,4-triazol-1-yl)-2-azaspiro[3.3]heptan-2-yl)(3-((2-fluoro-5-(trifluoromethyl)benzyl)oxy)azetidin-1-yl)methanone] yielded a half-inhibitory concentration (IC50) of 8.2 nM.

For `O=C(N1CC(OCc2ccc(C(F)(F)F)c(F)c2)C1)N1CC2(CC(n3cnc(C4CC4)n3)C2)C1` [Example 74, (6-(3-cyclopropyl-1H-1,2,4-triazol-1-yl)-2-azaspiro[3.3]heptan-2-yl)(3-((3-fluoro-4-(trifluoromethyl)benzyl)oxy)azetidin-1-yl)methanone], it took 160 nM to reach half-maximal inhibition (IC50).

As to `O=C(N1CC(OCc2ccc(OC(F)(F)F)cc2F)C1)N1CC2(CC(n3cnc(C4CC4)n3)C2)C1` [Example 75, (6-(3-cyclopropyl-1H-1,2,4-triazol-1-yl)-2-azaspiro[3.3]heptan-2-yl)(3-((2-fluoro-4-(trifluoromethoxy)ben-zyl)oxy)azetidin-1-yl)methanone], the midpoint of inhibition, the IC50, lay at 2.7 nM.

`O=C(N1CC(OCc2cc(F)cc(C(F)(F)F)c2)C1)N1CC2(CC(n3cnc(C4CC4)n3)C2)C1` [Example 76, (6-(3-cyclopropyl-1H-1,2,4-triazol-1-yl)-2-azaspiro[3.3]heptan-2-yl)(3-((3-fluoro-5-(trifluoromethyl)benzyl)oxy)azetidin-1-yl)methanone] showed an IC50 of 2.2 nM.

As to `O=C(N1CC(OCc2ccc(F)cc2Cl)C1)N1CC2(CC(n3cnc(C4CC4)n3)C2)C1` [Example 77, (3-((2-chloro-4-fluorobenzyl)oxy)azetidin-1-yl)(6-(3-cyclopropyl-1H-1,2,4-triazol-1-yl)-2-azaspiro[3.3]heptan-2-yl)methanone], the IC50 is 9.2 nM.
